Earlier results, collected in patent US20080226713A1, “Controlled Release Pharmaceutical Compositions of Tolperisone for Oral Administration” (priority 2004, published 2008).
Where two headings read alike, the source gives them in different places.

Columns and labels:
[1] = rat
[2] = JP-A-53-40779

extent of in-vivo inversion into the other enantiomer [1]	Structure (SMILES)	pharmacological effect ([2]; listed as S-tolperisone)	pharmacological effect ([2]; listed as R-tolperisone)
up to 20%	Cc1ccc(C(=O)C(C)CN2CCCCC2)cc1 (stereo not drawn) [S(+)tolperisone]	vaso- or bronchodilatory effect	–
–	Cc1ccc(C(=O)C(C)CN2CCCCC2)cc1 (stereo not drawn) [R(−)tolperisone]	–	muscle-relaxing effect
